Patent publication US12110279B2, “Triazolones, tetrazolones, and imidazolones, or their salts, and pharmaceutical compositions comprising the same” (Yuhan Corporation, priority 2021, dated 2024)
Counter-ions that a name gives are not always drawn. Like-named read-outs stand apart in the source and are kept apart here.

Legend:
Assay type in all cases: biochemical
[1] = biological target: T1, recombinant human MAO-A (monoamine oxidase-A) (Homo sapiens, UniProt P21397); experiment: Amplex Red HRP-coupled amine oxidase activity evaluation, recombinant human MAO-A; details: substrate 0.5 mM tyramine; read-out: Inhibitory Activity (IC50, nM) MAO-A
T1 construct: purchased Sigma-Aldrich
T1 sequence (P21397 1-527): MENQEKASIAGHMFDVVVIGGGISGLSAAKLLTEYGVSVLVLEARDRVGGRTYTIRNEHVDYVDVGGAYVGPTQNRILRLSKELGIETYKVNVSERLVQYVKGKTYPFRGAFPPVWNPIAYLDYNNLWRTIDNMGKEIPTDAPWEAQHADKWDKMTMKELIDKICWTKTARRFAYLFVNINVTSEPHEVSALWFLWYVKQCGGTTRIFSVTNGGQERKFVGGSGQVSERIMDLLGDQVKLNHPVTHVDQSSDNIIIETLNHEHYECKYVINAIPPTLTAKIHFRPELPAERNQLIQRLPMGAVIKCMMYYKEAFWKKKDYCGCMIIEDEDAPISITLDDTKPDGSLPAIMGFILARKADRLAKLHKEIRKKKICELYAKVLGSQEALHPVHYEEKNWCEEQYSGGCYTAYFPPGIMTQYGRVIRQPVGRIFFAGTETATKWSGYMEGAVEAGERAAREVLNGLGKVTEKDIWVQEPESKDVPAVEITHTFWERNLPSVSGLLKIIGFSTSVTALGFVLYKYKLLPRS
Description: [The source words this procedure for another target and says it was used here with some conditions changed.] (§1) The compounds according to the present technology were evaluated in terms of activity on recombinant human VAP-1 (R&D systems) by measuring the level of hydrogen peroxide in horseradish peroxidase (HRP)-coupled reaction using Amplex Red Hydrogen Peroxide Assay Kit (Molecular Probes, Invitrogen, USA). The experiment was carried out at room temperature using benzylamine as a substrate. In the HRP-coupled reaction, hydrogen peroxide oxidation of 10-acetyl-3,7-dihydroxyphenoxazine (Amplex Red reagent) produces resorufin, which is a highly fluorescent compound. Briefly, the test compound was dissolved in dimethyl sulfoxide (DMSO) at a concentration of 20 mM. The dose-response assessment was made by 1:3 serial dilution in DMSO, thereby creating an 8-point curve. The concentration of the upper part was controlled according to the efficacy of the compounds, followed by dilution with a reaction buffer solution to obtain a final DMSO concentration of less than 1%. To each well of a 96 black well plate, human VAP-1 purified in 50 mM sodium phosphate buffer solution (pH7.4) was added. The test compounds dissolved in DMSO were incubated with the human VAP-1 enzymes at 37° C. for 30 minutes. After 30-minute incubation, each well was added with a reaction mixture containing 200 uM Amplex Red reagent prepared from 50 mM sodium phosphate buffer solution (pH 7.4), 1 mM benzylamine, and 1 U/mL HRP. Fluorescence intensity was measured at several time points during 1-2 hours using a microplate reader (Flexstation3, Molecular Devices) under the wavelength condition exciting at 544 nm and reading the emission at 590 nm. The inhibitory effect of the compounds was measured as a decrease (%) in the signal rate as compared to the control group without any inhibitor (only diluted DMSO). Data was fixed to a logistic model with four variables and IC50 value was calculated using GraphPad Prism program.

[2] = biological target: T2, recombinant human DAO (diamine oxidase) (Homo sapiens, UniProt P19801); experiment: Amplex Red HRP-coupled amine oxidase activity evaluation, recombinant human DAO
T2 construct: purchased R&D systems
T2 sequence (P19801 20-751): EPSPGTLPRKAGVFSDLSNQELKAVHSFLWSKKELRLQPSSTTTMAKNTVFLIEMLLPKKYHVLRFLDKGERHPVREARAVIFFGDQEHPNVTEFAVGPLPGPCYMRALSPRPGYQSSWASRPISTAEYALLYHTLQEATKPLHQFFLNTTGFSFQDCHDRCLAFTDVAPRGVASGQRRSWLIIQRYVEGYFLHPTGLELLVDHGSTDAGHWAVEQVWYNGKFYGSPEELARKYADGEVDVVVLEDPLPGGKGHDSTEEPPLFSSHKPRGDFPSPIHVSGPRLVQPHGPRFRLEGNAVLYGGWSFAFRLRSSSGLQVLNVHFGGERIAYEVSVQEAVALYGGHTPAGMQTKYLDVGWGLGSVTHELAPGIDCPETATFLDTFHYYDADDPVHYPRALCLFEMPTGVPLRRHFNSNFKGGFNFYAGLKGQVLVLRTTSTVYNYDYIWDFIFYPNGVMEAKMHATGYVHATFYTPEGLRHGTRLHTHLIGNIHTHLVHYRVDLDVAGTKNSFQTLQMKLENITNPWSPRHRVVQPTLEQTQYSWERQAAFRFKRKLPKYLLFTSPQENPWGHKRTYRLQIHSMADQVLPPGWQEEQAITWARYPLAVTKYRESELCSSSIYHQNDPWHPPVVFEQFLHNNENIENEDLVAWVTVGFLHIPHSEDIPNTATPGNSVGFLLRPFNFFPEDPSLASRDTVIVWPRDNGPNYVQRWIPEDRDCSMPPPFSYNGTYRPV
Description: [The source words this procedure for another target and says it was used here with some conditions changed.] as §1

[3] = biological target: T3, recombinant human MAO-B (monoamine oxidase-B) (Homo sapiens, UniProt P27338); experiment: Amplex Red HRP-coupled amine oxidase activity evaluation, recombinant human MAO-B; details: substrate 1 mM benzylamine; read-out: Inhibitory Activity (IC50, nM) MAO-B
T3 construct: purchased Sigma-Aldrich
T3 sequence (P27338 1-520): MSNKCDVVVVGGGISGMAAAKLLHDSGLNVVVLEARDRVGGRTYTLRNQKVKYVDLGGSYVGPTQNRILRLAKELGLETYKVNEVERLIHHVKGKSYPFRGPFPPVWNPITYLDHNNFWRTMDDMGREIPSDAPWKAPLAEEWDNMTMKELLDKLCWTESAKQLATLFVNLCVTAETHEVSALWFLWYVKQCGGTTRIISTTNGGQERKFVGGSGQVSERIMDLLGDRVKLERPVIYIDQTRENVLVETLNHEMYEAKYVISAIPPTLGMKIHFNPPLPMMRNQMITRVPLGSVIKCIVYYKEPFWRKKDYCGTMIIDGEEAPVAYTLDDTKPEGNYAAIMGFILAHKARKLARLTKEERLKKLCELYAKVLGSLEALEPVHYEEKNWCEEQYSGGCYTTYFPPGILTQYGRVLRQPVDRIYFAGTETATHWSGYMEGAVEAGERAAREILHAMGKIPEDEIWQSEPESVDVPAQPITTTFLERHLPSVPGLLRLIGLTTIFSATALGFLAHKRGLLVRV
Description: [The source words this procedure for another target and says it was used here with some conditions changed.] as §1

[4] = biological target: T4, recombinant human VAP-1 (Homo sapiens, UniProt Q16853); experiment: Amplex Red HRP-coupled amine oxidase activity evaluation, recombinant human VAP-1; details: substrate 1 mM benzylamine; 30 min preincubation at 37° C.; read-out: Inhibitory Activity (IC50, nM) human VAP-1
T4 construct: purchased R&D systems
T4 sequence (Q16853 1-763): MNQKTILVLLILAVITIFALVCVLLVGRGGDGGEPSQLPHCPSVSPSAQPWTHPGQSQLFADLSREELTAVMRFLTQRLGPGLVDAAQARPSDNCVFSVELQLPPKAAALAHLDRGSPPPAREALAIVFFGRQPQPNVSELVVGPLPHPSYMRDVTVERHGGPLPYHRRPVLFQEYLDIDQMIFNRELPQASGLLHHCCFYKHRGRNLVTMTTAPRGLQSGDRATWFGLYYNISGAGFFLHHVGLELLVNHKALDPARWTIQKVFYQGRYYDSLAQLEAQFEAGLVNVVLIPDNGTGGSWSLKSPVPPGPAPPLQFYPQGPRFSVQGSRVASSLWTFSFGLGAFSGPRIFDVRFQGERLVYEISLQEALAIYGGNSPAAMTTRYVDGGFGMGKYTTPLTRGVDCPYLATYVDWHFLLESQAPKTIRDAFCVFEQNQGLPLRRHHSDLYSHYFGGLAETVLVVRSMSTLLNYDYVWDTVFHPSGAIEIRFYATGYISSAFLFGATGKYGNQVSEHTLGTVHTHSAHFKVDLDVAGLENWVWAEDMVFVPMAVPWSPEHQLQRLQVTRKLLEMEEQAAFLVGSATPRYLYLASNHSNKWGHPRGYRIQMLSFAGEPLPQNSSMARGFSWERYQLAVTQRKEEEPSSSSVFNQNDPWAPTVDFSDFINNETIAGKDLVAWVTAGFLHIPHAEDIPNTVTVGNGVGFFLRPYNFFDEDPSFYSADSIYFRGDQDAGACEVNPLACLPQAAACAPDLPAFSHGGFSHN
Description: as §1

[5] = substrate 1 mM putrescine, read-out: Inhibitory Activity (IC50, nM) DAO

Row | SMILES | IC50 [1] [nM] | IC50 [2] [nM] | IC50 [3] [nM] | IC50 [4] [nM] | IC50 [2, 5] [nM]
1 | CN1C(=O)CCc2cc(-c3ccc(Cn4nnn(CC(CN)=C(F)F)c4=O)s3)ccc21 [Example 46, 6-[5-[[4-[2-(aminomethyl)-3,3-difluoro-allyl]-5-oxo-tetrazol-1-yl]methyl]-2-thienyl]-1-methyl-3,4-dihydroquinolin-2-one trifluoroacetate] | 63100 |  | 6830 | 0.5 | 1050
2 | CS(=O)(=O)c1ccc(-c2cccc(-n3nnn(CC(CN)=C(F)F)c3=O)c2)cc1 [Example 10, 1-[2-(aminomethyl)-3,3-difluoro-allyl]-4-[3-(4-methylsulfonylphenyl)phenyl]tetrazol-5-one trifluoroacetate] | > 100000 | 2.2 | 53200 | 0.4 | 
3 | CCn1cc(-c2ccc(Cn3ccn(CC(CN)=C(F)F)c3=O)s2)cn1 [Example 52, 1-[2-(aminomethyl)-3,3-difluoro-allyl]-3-[[5-(1-ethylpyrazol-4-yl)-2-thienyl]methyl]imidazol-2-one trifluoroacetate] | > 100000 |  | 60200 | > 100 | 192
4 | Cc1nn(CC(CN)=C(F)F)c(=O)n1Cc1ccc(-c2ccc(S(C)(=O)=O)cc2)s1 [Example 2, 2-[2-(aminomethyl)-3,3-difluoro-allyl]-5-methyl-4-[[5-(4-methylsulfonylphenyl)-2-thienyl]methyl]-1,2,4-triazol-3-one trifluoroacetate] | > 100000 |  | > 100000 | 1.8 | > 100000
5 | NCC(Cn1nnn(-c2cccc(-c3ccc(N4CCNCC4)cc3)c2)c1=O)=C(F)F [Example 11, 1-[2-(aminomethyl)-3,3-difluoro-allyl]-4-[3-(4-piperazin-1-ylphenyl)phenyl]tetrazol-5-one trifluoroacetate] | > 100000 | 351 | > 100000 | 7 | 
6 | CCn1cc(-c2ccc(Cn3ccn(CC(CN)=C(F)F)c3=O)s2)ccc1=O [Example 50, 5-[5-[[3-[2-(aminomethyl)-3,3-difluoro-allyl]-2-oxo-imidazol-1-yl]methyl]-2-thienyl]-1-ethyl-pyridin-2-one trifluoroacetate] | > 100000 |  | > 100000 | > 100 | 8.3

Continued, values first:

Row | IC50 [1] [nM] | IC50 [2] [nM] | IC50 [3] [nM] | IC50 [4] [nM] | IC50 [2, 5] [nM] | SMILES
7 | 52200 | 3.5 | 7080 | 0.9 |  | Cc1cc(-c2cncc(-n3nnn(CC(CN)=C(F)F)c3=O)c2)cc2c1NC(=O)CC2 [Example 49, 6-[5-[4-[2-(aminomethyl)-3,3-difluoro-allyl]-5-oxo-tetrazol-1-yl]-3-pyridyl]-8-methyl-3,4-dihydro-1H-quinolin-2-one trifluoroacetate]
8 | > 100000 |  | 7800 | 0.7 | 12 | Cc1cc(-c2cccc(-n3nnn(CC(CN)=C(F)F)c3=O)c2)cc2c1NC(=O)CC2 [Example 13, 6-[3-[4-[2-(aminomethyl)-3,3-difluoro-allyl]-5-oxo-tetrazol-1-yl]phenyl]-8-methyl-3,4-dihydro-1H-quinolin-2-one trifluoroacetate]
9 | 49200 |  | 7210 | 0.6 | 1870 | Cc1cc(-c2ccc(Cn3nnn(CC(CN)=C(F)F)c3=O)s2)cc2c1NC(=O)CC2 [Example 45, 6-[5-[[4-[2-(aminomethyl)-3,3-difluoro-allyl]-5-oxo-tetrazol-1-yl]methyl]-2-thienyl]-8-methyl-3,4-dihydro-1H-quinolin-2-one trifluoroacetate]
10 | > 100000 |  | 260 | 1.5 | 55 | CS(=O)(=O)c1ccc(-c2ccc(-n3nnn(CC(CN)=C(F)F)c3=O)cc2)cc1 [Example 16, 1-[2-(aminomethyl)-3,3-difluoro-allyl]-4-[4-(4-methylsulfonylphenyl)phenyl]tetrazol-5-one trifluoroacetate]
11 | > 100000 |  | > 100000 | > 100 | > 100000 | CCn1cc(-c2ccc(C)c(-n3nnn(CC(CN)=C(F)F)c3=O)n2)ccc1=O [Example 24, 5-[6-[4-[2-(aminomethyl)-3,3-difluoro-allyl]-5-oxo-tetrazol-1-yl]-5-methyl-2-pyridyl]-1-ethyl-pyridin-2-one trifluoroacetate]
12 | 98400 | 95 | 74 | 0.3 |  | CCn1cc(-c2ccc(-n3nnn(CC(CN)=C(F)F)c3=O)cc2)cn1 [Example 22, 1-[2-(aminomethyl)-3,3-difluoro-allyl]-4-[4-(1-ethylpyrazol-4-yl)phenyl]tetrazol-5-one trifluoroacetate]
